22 compounds from PubChem BioAssay AID330 (DTP/NCI, 2004) can be followed below.

Where “and” joins values, the source holds several entries; their conditions need not be identical. Identical values can stand only once. Toxic doses and inconclusive results are not listed.

The test deals with P388 leukemia ip, CD2F1 mice, survival T/C. Briefly: NCI In Vivo Anticancer Drug Screen. Data for tumor model P388 Leukemia (intraperitoneal) in CD2F1 (CDF1) mice. As to conditions: endpoint: median survival time, higher = longer survival. A digest of the protocol:
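Mice carrying the transplanted tumor received test compound or vehicle. Survival was recorded in each group, and the value is the treated-group measurement divided by that of the vehicle-treated control group.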

The mark [1] stands for this setting: dose: 50.0 mg/kg/injection, schedule: Q01DX005 (ip), vehicle: Klucel (hydroxypropylcellulose) (HPC).
Where [2] appears, read: dose: 100.0 mg/kg/injection, schedule: Q01DX005 (ip), vehicle: Klucel (hydroxypropylcellulose) (HPC).
Setting [3] is: dose: 200.0 mg/kg/injection, schedule: Q01DX005 (ip), vehicle: Klucel (hydroxypropylcellulose) (HPC).
Where [4] appears, read: dose: 50.0 mg/kg/injection, schedule: Q01DX009 (ip), vehicle: saline with Tween-80.
Where [5] appears, read: dose: 100.0 mg/kg/injection, schedule: Q01DX009 (ip), vehicle: saline with Tween-80.
Setting [6] is: dose: 200.0 mg/kg/injection, schedule: Q01DX009 (ip), vehicle: saline with Tween-80.
Setting [7] is: dose: 30.0 mg/kg/injection, schedule: Q01DX005 (ip), vehicle: Klucel (hydroxypropylcellulose) (HPC).
Setting [8] is: dose: 60.0 mg/kg/injection, schedule: Q01DX005 (ip), vehicle: Klucel (hydroxypropylcellulose) (HPC).
The mark [9] stands for this setting: dose: 50.0 mg/kg/injection, schedule: Q01DX009 (ip), vehicle: Klucel (hydroxypropylcellulose) (HPC).
Setting [10] is: dose: 100.0 mg/kg/injection, schedule: Q01DX009 (ip), vehicle: Klucel (hydroxypropylcellulose) (HPC).
The mark [11] stands for this setting: dose: 200.0 mg/kg/injection, schedule: Q01DX009 (ip), vehicle: Klucel (hydroxypropylcellulose) (HPC).
Where [12] appears, read: dose: 12.5 mg/kg/injection, schedule: Q01DX009 (ip), vehicle: saline with Tween-80.
The mark [13] stands for this setting: dose: 25.0 mg/kg/injection, schedule: Q01DX009 (ip), vehicle: saline with Tween-80.

Consider `CN1C(=O)c2ccc3c4ccc5c(=O)n6c7ccccc7nc6c6ccc(c7ccc(c2c37)C1=O)c4c56`, for which the T/C runs as follows: under setting [1], 102 % of control; under setting [2], 105 % of control; under setting [3], 97 % of control.
Turning to `CCN(C)c1cc(=O)c2c(ccc3ccccc32)o1`, the T/C under setting [4] was 94 % of control, the T/C under setting [5] was 101 % of control and the T/C under setting [6] was 95 % of control.
For the compound `COc1cc(OC2OC(CO)C(O)C(O)C2O)ccc1/C=C\C(=O)c1ccc(O)cc1` (configuration not stated), the T/C reads like this: (dose: 100.0 mg/kg/injection, schedule: Q04DX002 (ip), vehicle: saline with Tween-80) 96 % of control; (dose: 200.0 mg/kg/injection, schedule: Q04DX002 (ip), vehicle: saline with Tween-80) 90 % of control; (dose: 400.0 mg/kg/injection, schedule: Q04DX002 (ip), vehicle: saline with Tween-80) 91 % of control.
`CCCS(=N)(=O)CCC(N)C(=O)O` (configuration not stated): the T/C is 93 % of control (dose: 25.0 mg/kg/injection, schedule: Q01DX005 (ip), vehicle: saline); 98 % of control (dose: 50.0 mg/kg/injection, schedule: Q01DX005 (ip), vehicle: saline); 107 % of control (dose: 100.0 mg/kg/injection, schedule: Q01DX005 (ip), vehicle: saline); 112 % of control (dose: 200.0 mg/kg/injection, schedule: Q01DX005 (ip), vehicle: saline).
Regarding `Nc1[nH]c(=S)[nH]c(=O)c1NS(=O)(=O)c1ccc([N+](=O)[O-])cc1`, the T/C is 101 % of control and 108 % of control under setting [7]; 98 % of control and 94 % of control under setting [8]; 101 % of control and 92 % of control (dose: 120.0 mg/kg/injection, schedule: Q01DX005 (ip), vehicle: Klucel (hydroxypropylcellulose) (HPC)); 90 % of control (dose: 240.0 mg/kg/injection, schedule: Q01DX005 (ip), vehicle: Klucel (hydroxypropylcellulose) (HPC)).
In the case of `C=C1C(=O)OC2C=C(CCC(C)=O)C(C)C(OC(C)=O)CC12` (configuration not stated), the T/C (dose: 25.0 mg/kg/injection, schedule: Q01DX009 (ip), vehicle: Klucel (hydroxypropylcellulose) (HPC)) was 100 % of control; the T/C under setting [9] is 102 % of control; the T/C under setting [10] was 94 % of control; the T/C under setting [11] was 94 % of control.
Consider `O=[N+]([O-])C1(Cl)CCC(Cl)([N+](=O)[O-])CC1` (configuration not stated), for which the T/C (dose: 100.0 mg/kg/injection, schedule: Q01DX001 (ip), vehicle: Klucel (hydroxypropylcellulose) (HPC)) was 100 % of control and the T/C (dose: 200.0 mg/kg/injection, schedule: Q01DX001 (ip), vehicle: Klucel (hydroxypropylcellulose) (HPC)) is 104 % of control.
`Cc1ccc(CNc2ccc([N+](=O)[O-])cc2)cc1`: the T/C reads like this: (dose: 50.0 mg/kg/injection, schedule: Q04DX003 (ip), vehicle: saline with Tween-80) 100 % of control; (dose: 100.0 mg/kg/injection, schedule: Q04DX003 (ip), vehicle: saline with Tween-80) 100 % of control; (dose: 200.0 mg/kg/injection, schedule: Q04DX003 (ip), vehicle: saline with Tween-80) 95 % of control.
For the compound `CCCCCCCCC1SC1CCCCCCCC(=O)OCCOCCOCC` (configuration not stated), the T/C runs as follows: under setting [5], 104 % of control; under setting [6], 104 % of control; (dose: 400.0 mg/kg/injection, schedule: Q01DX009 (ip), vehicle: saline with Tween-80) 100 % of control.
In the case of `CN(Cc1cnc2nc(N)nc(N)c2n1)c1ccc(C(=O)NC(CCC(=O)NC(CCC(=O)O)C(=O)O)C(=O)O)cc1` (configuration not stated), the T/C runs as follows: (dose: 1.56 mg/kg/injection, schedule: Q01DX009 (ip), vehicle: Klucel (hydroxypropylcellulose) (HPC)) 184 % of control and 218 % of control; (dose: 3.12 mg/kg/injection, schedule: Q01DX009 (ip), vehicle: Klucel (hydroxypropylcellulose) (HPC)) 214 % of control and 94 % of control; (dose: 6.25 mg/kg/injection, schedule: Q01DX009 (ip), vehicle: Klucel (hydroxypropylcellulose) (HPC)) 88 % of control.
Turning to `CCCCCCCCCCCCOc1ccccc1C(=O)O`, the T/C (dose: 6.25 mg/kg/injection, schedule: Q04DX003 (ip), vehicle: saline sonified) is 100 % of control; the T/C (dose: 12.5 mg/kg/injection, schedule: Q04DX003 (ip), vehicle: saline sonified) is 100 % of control; the T/C (dose: 25.0 mg/kg/injection, schedule: Q04DX003 (ip), vehicle: saline sonified) was 100 % of control.
For `O=C1N=C2OC3(CCCCC3)OC(=O)N2C2(CCCCC2)O1`, the T/C was 107 % of control (dose: 12.5 mg/kg/injection, schedule: Q01DX009 (ip), vehicle: distilled water + Tween-80); 93 % of control (dose: 25.0 mg/kg/injection, schedule: Q01DX009 (ip), vehicle: distilled water + Tween-80); 97 % of control (dose: 50.0 mg/kg/injection, schedule: Q01DX009 (ip), vehicle: distilled water + Tween-80); 100 % of control and 96 % of control (dose: 100.0 mg/kg/injection, schedule: Q01DX009 (ip), vehicle: distilled water + Tween-80); 109 % of control and 114 % of control (dose: 200.0 mg/kg/injection, schedule: Q01DX009 (ip), vehicle: distilled water + Tween-80).
As for `Nc1cc2c(c[n+](CCCCCCCCC[n+]3cc4c5ccccc5c(N)cc4c4ccccc43)c3ccccc23)c2ccccc12`, the T/C is, setting by setting: (dose: 0.39 mg/kg/injection, schedule: Q04DX003 (ip), vehicle: other) 150 % of control; (dose: 0.78 mg/kg/injection, schedule: Q04DX003 (ip), vehicle: other) 173 % of control; (dose: 1.56 mg/kg/injection, schedule: Q04DX003 (ip), vehicle: other) 162 % of control; (dose: 3.13 mg/kg/injection, schedule: Q04DX003 (ip), vehicle: other) 173 % of control; (dose: 6.25 mg/kg/injection, schedule: Q04DX003 (ip), vehicle: other) 169 % of control and 191 % of control; (dose: 12.5 mg/kg/injection, schedule: Q04DX003 (ip), vehicle: other) 117 % of control and 95 % of control.
On to `CC1=CC(=Nc2ccc(N(C)C)cc2)C=CC1=O`, for which the T/C (dose: 3.13 mg/kg/injection, schedule: Q01DX009 (ip), vehicle: saline with Tween-80) was 104 % of control and 115 % of control; the T/C (dose: 6.25 mg/kg/injection, schedule: Q01DX009 (ip), vehicle: saline with Tween-80) is 107 % of control and 115 % of control; the T/C under setting [12] is 111 % of control and 114 % of control.
Turning to `C1CN=C(N2CCCC2)C1`, the T/C by setting is: under setting [12], 103 % of control; under setting [13], 94 % of control; under setting [4], 101 % of control and 90 % of control.
Take `O=C1CN2C=CC=CC2=NN1`: the T/C is 100 % of control (dose: 60.0 mg/kg/injection, schedule: Q01DX005 (ip), vehicle: saline); 99 % of control (dose: 120.0 mg/kg/injection, schedule: Q01DX005 (ip), vehicle: saline); 101 % of control (dose: 240.0 mg/kg/injection, schedule: Q01DX005 (ip), vehicle: saline).
Regarding `C[N+]1(C)N=C([O-])N(c2ccccc2C(F)(F)F)C1=O`, the T/C by setting is: under setting [12], 99 % of control; under setting [13], 99 % of control; under setting [4], 106 % of control.
Turning to `CC1OC2COC(C)OC2C(C2CN2)O1` (configuration not stated), the T/C by setting is: (dose: 50.0 mg/kg/injection, schedule: Q01DX009 (ip), vehicle: saline) 110 % of control; (dose: 100.0 mg/kg/injection, schedule: Q01DX009 (ip), vehicle: saline) 100 % of control; (dose: 200.0 mg/kg/injection, schedule: Q01DX009 (ip), vehicle: saline) 117 % of control.
Take `COc1cc2c(c(OC)c1OC)-c1cc3c(cc1CC1COC(=O)N1C2)OCO3` (configuration not stated): the T/C was 90 % of control and 94 % of control (dose: 15.0 mg/kg/injection, schedule: Q01DX005 (ip), vehicle: Klucel (hydroxypropylcellulose) (HPC)); 100 % of control and 105 % of control under setting [7]; 103 % of control and 116 % of control and 96 % of control under setting [8].
For the compound `CCOC(=O)N1CCN(C(=O)c2nc3ccc(Cl)cc3[nH]2)CC1`, the T/C was 108 % of control under setting [1], 87 % of control under setting [2] and 93 % of control under setting [3].
Regarding `COc1ccc(/C=C/C(=O)c2cc(C(=O)O)c(OC)cc2OC)cc1OC`, the T/C is 117 % of control and 120 % of control (dose: 50.0 mg/kg/injection, schedule: Q01DX009 (ip), vehicle: suspension in saline); 123 % of control (dose: 100.0 mg/kg/injection, schedule: Q01DX009 (ip), vehicle: suspension in saline).
Take `CCOC(=O)N1CC2C=CC1C(C(=O)OC)=C2C(=O)OC` (configuration not stated): the T/C under setting [9] was 109 % of control, the T/C under setting [10] was 113 % of control and the T/C under setting [11] was 113 % of control.
